Reference: patent publication US11572590B2, “Methods for evaluating tumor cell spheroids using 3D microfluidic cell culture device” (Dana-Farber Cancer Institute, Inc., priority 2017, dated 2023)
Like-named read-outs stand apart in the source and are kept apart here.

Molecular target: T1, off-target kinases (Homo sapiens, UniProt Q99683)
T1 sequence (Q99683 1-1374): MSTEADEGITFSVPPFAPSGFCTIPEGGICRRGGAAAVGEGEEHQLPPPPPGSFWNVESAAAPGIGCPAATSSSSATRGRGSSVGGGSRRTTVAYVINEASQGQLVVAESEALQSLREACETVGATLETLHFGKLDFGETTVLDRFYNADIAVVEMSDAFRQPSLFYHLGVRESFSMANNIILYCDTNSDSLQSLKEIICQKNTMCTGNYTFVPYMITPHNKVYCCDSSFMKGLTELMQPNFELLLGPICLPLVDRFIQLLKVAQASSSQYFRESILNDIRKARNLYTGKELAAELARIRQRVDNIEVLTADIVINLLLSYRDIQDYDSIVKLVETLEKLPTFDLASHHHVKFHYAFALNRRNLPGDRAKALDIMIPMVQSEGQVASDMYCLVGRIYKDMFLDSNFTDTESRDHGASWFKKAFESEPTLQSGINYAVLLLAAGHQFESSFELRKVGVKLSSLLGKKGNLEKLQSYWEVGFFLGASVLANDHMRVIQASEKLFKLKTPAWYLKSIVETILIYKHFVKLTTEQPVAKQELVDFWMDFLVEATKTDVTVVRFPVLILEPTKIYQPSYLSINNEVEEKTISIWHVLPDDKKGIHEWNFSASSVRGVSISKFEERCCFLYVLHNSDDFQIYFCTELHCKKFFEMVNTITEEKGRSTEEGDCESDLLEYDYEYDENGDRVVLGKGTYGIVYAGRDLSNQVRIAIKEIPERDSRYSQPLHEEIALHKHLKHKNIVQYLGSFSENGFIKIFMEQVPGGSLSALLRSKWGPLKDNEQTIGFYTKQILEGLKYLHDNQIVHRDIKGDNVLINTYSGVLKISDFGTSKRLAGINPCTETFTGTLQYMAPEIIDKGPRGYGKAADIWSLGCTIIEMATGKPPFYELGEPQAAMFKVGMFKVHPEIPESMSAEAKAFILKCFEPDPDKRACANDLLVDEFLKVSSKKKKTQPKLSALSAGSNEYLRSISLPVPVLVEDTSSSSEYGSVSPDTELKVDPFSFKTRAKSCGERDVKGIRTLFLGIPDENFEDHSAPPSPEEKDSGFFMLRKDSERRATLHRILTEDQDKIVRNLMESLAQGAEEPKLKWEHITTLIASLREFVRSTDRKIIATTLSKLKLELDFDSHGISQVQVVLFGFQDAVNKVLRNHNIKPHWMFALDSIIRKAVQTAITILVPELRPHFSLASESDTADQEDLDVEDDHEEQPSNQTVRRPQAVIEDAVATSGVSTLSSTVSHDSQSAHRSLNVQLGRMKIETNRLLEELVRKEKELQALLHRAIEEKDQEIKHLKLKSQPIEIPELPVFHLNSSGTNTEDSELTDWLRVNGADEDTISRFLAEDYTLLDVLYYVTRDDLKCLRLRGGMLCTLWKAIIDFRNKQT
Test: SelectScreen Kinase Profiling, single point inhibition and IC50 for off-target kinases
Type: biochemical
Conditions: MAP3K5 (ASK1), LanthaScreen Binding

In the case of `N#Cc1cc(-c2ncnc(Nc3ccc(N4CCN(C5COC5)CC4)cc3)n2)ccc1OC1CCOCC1` [Compound 1, 5-(4-((4-(4-(oxetan-3-yl)piperazin-1-yl)phenyl)amino)-1,3,5-triazin-2-yl)-2-((tetrahydro-2H-pyran-4-yl)oxy)benzonitrile], the inhibition (read-out: % Inhibition 1) is reported as 7%, the inhibition (read-out: % Inhibition 2) is reported as 8% and the inhibition (read-out: % Inhibition Avg) is reported as 7%.
